These results are taken from patent US12157750B2, “Bright targetable red CA2+ indicators” (HOWARD HUGHES MEDICAL INSTITUTE, priority 2019, dated 2024).

Where “and” joins values, the source holds several entries; their conditions need not be identical. Identical values can stand only once. Like-named read-outs stand apart in the source and are kept apart here.

Data set [1] has as its system Primary rat hippocampal neurons. In words: Calcium indicators characterization in primary neuron culture (evoked action potentials). The class given is cell-based. The settings on record: for ΔF/F0, single AP: 1 AP.
Method: Synaptic blockers (10 μM CNQX, 10 μM CPP, 10 μM GABAZINE, and 1 mM MCPG) were added to block ionotropic glutamate, GABA, and metabotropic glutamate receptors.^21 Each measurement was performed on 3 to 5 wells replicates.
Wide-field imaging was performed on an inverted Nikon Eclipse Ti2 microscope equipped with a SPECTRA X light engine (Lumencore), 20× objective (NA=0.75, Nikon), and imaged onto a scientific CMOS camera (Hamamatsu ORCA-Flash 4.0). […] A quad bandpass filter (set number: 89000, Chroma) was used along with the appropriate color band from the SPECTRA X light source to image 13AM.
Data set [2] is described as follows: UV-Vis and fluorescence spectroscopy. The class given is physicochemical. The settings on record: in vitro; for λmax: first value of λmax/λem; for λem: second value of λmax/λem. Here is the method:
(§1) All measurements were taken at ambient temperature (23±2° C.). […] Spectroscopy was performed using 1-cm path length quartz cuvettes (Starna). Absorption measurements were recorded on a Cary Model 100 spectrometer (Varian). Fluorescence measurements spectra were recorded on a Cary Eclipse fluorometer (Varian). Images were processed in ImageJ/Fiji. Data was analyzed and graphs were plotted using Prism (GraphPad). Movie renderings were done using Imaris (Bitplane)
(§2) Example 15: UV-Vis and Fluorescence Spectroscopy, Kd Determination. UV-Vis and fluorescence spectra were measured in a commercial EGTA buffer system (Invitrogen) following the associated protocol. […] For calcium titrations of the HaloTag ligands in the presence of HaloTag protein, the dye was incubated with 1.5 eq of purified HaloTag protein ([…] solution in 75 mM NaCl, 50 mM Tris-HCl, pH 7.4) for 1 h at room temperature. Calcium titrations were then performed using the commercial EGTA buffer system to which 0.1 mg·mL^−1 CHAPS was added. All the calcium titrations were performed in duplicate.

Data set [3] can be described thus: Quantum yield determination. The data set is classed as physicochemical. The conditions noted are these: fluorescence quantum yield at saturating Ca2+. Here is the method:
Example 16: Quantum Yield Determination. Absolute quantum yields (Φ) were measured using a Quantaurus-QY spectrometer (model C11374) from Hamamatsu. This instrument uses an integrating sphere to determine photons absorbed and emitted by a sample. Measurements were carried out using dilute samples (A<0.1) and self-absorption corrections were performed using the instrument software.^27

Data set [4] in a line: Calcium titrations in EGTA buffer system (ΔF/F0, Kd determination). The class given is binding. The settings on record: for Kd: in vitro Ca2+ binding; for ΔF/F0: Ca2+-dependent change in fluorescence over baseline. The protocol:
as §1, §2

Data set [5] concerns cultured neurons expressing NES-HaloTag-GFP. The settings on record: cells expressing NES-HaloTag-GFP; same imaging conditions; normalized to GFP.
Method: Primary rat hippocampal neurons were prepared as described previously and infected with AAV viruses.^1 Stock solutions of the different calcium indicators were prepared at C=1 mM in DMSO containing 20% Pluronic F-127. Cultured neurons were incubated with the cell-permeant sensors at 37° C. for 30 min (7AM and Calcium Orange-AM) or 2 h (12AM and 13AM) before washing twice with imaging buffer containing the following: 145 mM NaCl, 2.5 mM KCl, 10 mM glucose, 10 mM HEPES, pH 7.4, 2 mM CaCl2), 1 mM MgCl2. Synaptic blockers (10 μM CNQX, 10 μM CPP, 10 μM GABAZINE, and 1 mM MCPG) were added to block ionotropic glutamate, GABA, and metabotropic glutamate receptors.^21 Each measurement was performed on 3 to 5 wells replicates.
Wide-field imaging was performed on an inverted Nikon Eclipse Ti2 microscope equipped with a SPECTRA X light engine (Lumencore), 20× objective (NA=0.75, Nikon), and imaged onto a scientific CMOS camera (Hamamatsu ORCA-Flash 4.0). […]
Brightness comparison: The brightness of 12AM, jRGECO1a and jRCaMP1b in neurons were compared under the same illumination conditions. The fluorescence emission in each field of view was background subtracted and normalized by the emission of the fused EGFP to account for differences in expression levels among neurons.
Data set [6] relates to primary cilium in hRPE1 cells expressing 5HT6-HaloTag. The conditions noted are these: Ca2+ uncaging with 405 nm light.
Method: Tet-on 5HT6-HaloTag RPE cells were plated in 8-well Labtek II chambers (Invitrogen) in 10% FBS DMEM:F12 media. The next day, the cells were serum deprived with 0% FBS DMEM:F12 medium with 100 ng/ml doxycycline to induce 5HT6-HaloTag expression. After 24 h of serum deprivation and doxycycline induction, cells were labeled with 1 μM 13AM overnight. After rinsing in DMEM:F12, the cells were loaded with 4 μM NP-EGTA, AM (ThermoFisher N6803) for 1 h. The medium was then replaced by DMEM Fluorobrite (ThermoFisher) for imaging in a 37° C., 5% CO2 chamber on an inverted Zeiss 880 with Airyscan. For each single cilium, 405 nm laser light (100%, 15 mW, 3s) uncaged free Ca^2+ from NP-EGTA in a 50-70 μm^2 area. Airyscan images were acquired at 0.5-0.8 s/stack for a total of 100 stacks (50-80 s) with 633 laser lines (13AM). Calcium uncaging was performed at the 50th stack. Change in intensity values were calculated in ImageJ using a maximum intensity projection series.
For another data set, the target named is HaloTag protein (Rhodococcus rhodochrous, UniProt P0A3G2, A155T/A167V/A172T/A224E/C128F/C176G/D78G/E160K/E257K/H272N/K175M/K195N/L47V/L88M/N227D/P291S/S2A/S58T/T264A/Y273L/Y87F). In words: Calcium titrations in the presence or absence of excess HaloTag protein. The settings on record: in vitro; saturating [Ca2+]. The data set is classed as biochemical. The protocol:
as §2

For data set [7] the following is noted: known indicator, literature value (ref. 15); saturating Ca2+; cited from earlier work.
For data set [8] the following is noted: known indicator, cited from earlier work.
For data set [9] the following is noted: known indicator, literature value (ref. 15); cited from earlier work.
The mark [10] stands for this setting: cultured hippocampal neurons loaded with AM ester.

Chain of HaloTag protein (P0A3G2 other isoform, or with tags, fused parts or gaps with the stated changes): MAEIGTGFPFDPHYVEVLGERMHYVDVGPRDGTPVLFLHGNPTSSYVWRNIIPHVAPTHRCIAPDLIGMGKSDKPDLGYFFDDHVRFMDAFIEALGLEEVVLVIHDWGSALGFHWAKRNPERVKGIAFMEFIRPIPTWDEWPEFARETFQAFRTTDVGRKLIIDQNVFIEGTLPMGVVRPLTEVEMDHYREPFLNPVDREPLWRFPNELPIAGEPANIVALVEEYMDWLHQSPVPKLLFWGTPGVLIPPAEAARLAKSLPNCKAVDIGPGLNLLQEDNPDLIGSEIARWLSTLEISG

On to “3″-BAPTA-JF549 tetra-acetoxymethyl ester [Compound 7AM]”, for which, in data set [1] (setting [10]), the “saturating number of APs” value was found to be 40 APs and the “ΔF/F0, single AP” value stood at 0.20. Besides, the “maximal ΔF/F0” value in data set [1] (cultured hippocampal neurons loaded with AM ester, at saturation) came out at 0.80. Besides, in data set [1] (cultured neurons), the “brightness compared to cells loaded with 2AM” value came to 10 × and the “ΔF/F0 compared to cells loaded with 2AM” value is listed as 10 ×.

On to “3″-BAPTA-JF549-HaloTag ligand [Compound 12]”, for which, in data set [2], the λmax is 553 nm and the λem was 573 nm. This compound yielded a ϕsat in data set [3] of 0.78. The Kd in [4] amounted to 130 nM. Moreover, in data set [4] (in vitro), the ΔF/F0 is on record as 9.5.

Turning to “3″-BAPTA-JF549-HaloTag ligand tetra acetoxymethyl ester [Compound 12AM]”, in [5], the “baseline fluorescence, brighter than jRCaMP1b” value was 3.6 fold and the “baseline fluorescence, brighter than jRGECO1a” value is reported as 7.8 fold.

In the case of “3″-BAPTA-JF646-HaloTag ligand tetra acetoxymethyl ester [Compound 13AM]”, the “ΔF/F0, single AP” value in data set [1] (cultured hippocampal neurons expressing NES-HaloTag-GFP) came to 0.11. Moreover, in [6], the “ΔF/F0 across the entire cilium” value is 0.60.

In data set [2], `O=C(O)CN(CC(=O)O)c1ccccc1OCCOc1cc(NC(=O)c2ccc(-c3c4ccc(=[N+]5CCC5)cc-4oc4cc(N5CCC5)ccc34)c(C(=O)[O-])c2)ccc1N(CC(=O)O)CC(=O)O` [Compound 3, 5-BAPTA-JF549] had a λmax of 554 nm and a λem of 579 nm. In data set [3], this compound came in with a ϕsat of 0.69. In addition, the dissociation constant (Kd) in data set [4] is 190 nM. For the same compound, the ΔF/F0 in [4] (in vitro) is listed as 2.3.

In data set [2], `O=C(O)CN(CC(=O)O)c1ccccc1OCCOc1cc(NC(=O)c2ccc(C(=O)[O-])c(-c3c4ccc(=[N+]5CCC5)cc-4oc4cc(N5CCC5)ccc34)c2)ccc1N(CC(=O)O)CC(=O)O` [Compound 4, 6-BAPTA-JF549] came in with a λmax of 555 nm and a λem of 576 nm. This compound also yielded a ϕsat in [3] of 0.78. For the same compound, in [4] (in vitro), the “improvement in ΔF/F0 compared to 3” value was 2 fold and the ΔF/F0 was found to be 4.6. The dissociation constant (Kd) in [4] came to 350 nM.

In the case of `CN(C(=O)c1cccc(C(=O)O)c1-c1c2ccc(=[N+]3CCC3)cc-2oc2cc(N3CCC3)ccc12)c1ccc(N(CC(=O)O)CC(=O)O)c(OCCOc2ccccc2N(CC(=O)O)CC(=O)O)c1` [Compound 5, 7-MeBAPTA-JF549], in data set [2], the λmax is 565 nm and the λem is 583 nm. Also, the ϕsat in data set [3] worked out at 0.18. In data set [4], the Kd amounted to 570 nM. For the same compound, the ΔF/F0 in data set [4] (in vitro) worked out at 14.

Take `O=C(O)CN(CC(=O)O)c1ccccc1OCCOc1cc(NC(=O)C2CC/[N+]2=c2/ccc3c(-c4ccccc4C(=O)[O-])c4ccc(N5CCC5)cc4oc-3c2)ccc1N(CC(=O)O)CC(=O)O` (stereo not drawn) [Compound 6, 2″-BAPTA-JF549]: in data set [2], the λmax is on record as 542 nm and the λem is given as 566 nm. For the same compound, in data set [3], the ϕsat was found to be 0.45. Also, the dissociation constant (Kd) in [4] was determined as 270 nM. Moreover, the ΔF/F0 in data set [4] (in vitro) is 27.7.

Regarding `O=C(O)CN(CC(=O)O)c1ccccc1OCCOc1cc(NC(=O)C2C[N+](=c3ccc4c(-c5ccccc5C(=O)[O-])c5ccc(N6CCC6)cc5oc-4c3)C2)ccc1N(CC(=O)O)CC(=O)O` (stereo not drawn) [Compound 7, 3″-BAPTA-JF549], in data set [2], the “red-shift of λex and λem relative to compound 1” value was 50 nm; the λmax is listed as 546 nm; the λem is 569 nm. Besides, the ϕsat in [3] is recorded as 0.75. The equilibrium dissociation constant (Kd) in data set [4] was determined as 310 nM. Further, in [4] (in vitro), the ΔF/F0 is 15.0.

In data set [2], `O=C(O)CN(CC(=O)O)c1ccccc1OCCOc1cc(NC(=O)C2CN(c3ccc4c(-c5ccccc5C(=O)[O-])c5ccc(=[N+]6CC(C(=O)Nc7ccc(N(CC(=O)O)CC(=O)O)c(OCCOc8ccccc8N(CC(=O)O)CC(=O)O)c7)C6)cc-5oc4c3)C2)ccc1N(CC(=O)O)CC(=O)O` (stereo not drawn) [Compound 8, 3″,3″′-bisBAPTA-JF549] gave a λmax of 543 nm and a λem of 566 nm. This compound also yielded a ϕsat in data set [3] of 0.70. The dissociation constant Kd in data set [4] came out at 730 nM. Besides, the ΔF/F0 in data set [4] (in vitro) came out at 47.0.

Turning to `O=C(O)CN(CC(=O)O)c1ccc(NC(=O)C2CN(c3ccc4c(-c5ccccc5C(=O)O)c5ccc(=[N+]6CCC6)cc-5oc4c3)C2)cc1OCCOc1cc(NC(=O)C2C[N+](=c3ccc4c(-c5ccccc5C(=O)O)c5ccc(N6CCC6)cc5oc-4c3)C2)ccc1N(CC(=O)O)CC(=O)O` (stereo not drawn) [Compound 9, 3″-BAPTA-bisJF549], in data set [2], the λmax is 512-549 nm and the λem came out at 570 nm. This compound showed a ϕsat in data set [3] of 0.20. Besides, the ΔF/F0 in [4] (in vitro) worked out at 75.0.

Consider `O=C(O)CN(CC(=O)O)c1ccccc1OCCOc1cc(NC(=O)C2C[N+](=c3ccc4c(-c5cc(C(=O)NCCOCCOCCCCCCCl)ccc5C(=O)[O-])c5ccc(N6CCC6)cc5oc-4c3)C2)ccc1N(CC(=O)O)CC(=O)O` (stereo not drawn) [Compound 12, 3″-BAPTA-JF549-HaloTag ligand], for which, in data set [2], the λmax worked out at 550 nm and the λem is 574 nm. In data set [3], this compound had a ϕsat of 0.74. Also, the Kd in data set [4] was 290 nM. Besides, in data set [4] (in vitro), the ΔF/F0 is 14 and 13.8.

In data set [2], `C[Si]1(C)c2cc(N3CCC3)ccc2C2(OC(=O)c3ccc(C(=O)NCCOCCOCCCCCCCl)cc32)c2ccc(N3CC(C(=O)Nc4ccc(N(CC(=O)O)CC(=O)O)c(OCCOc5ccccc5N(CC(=O)O)CC(=O)O)c4)C3)cc21` (stereo not drawn) [Compound 13, 3″-BAPTA-JF646-HaloTag ligand] returned a λmax of 646 nm and a λem of 666 nm. The ϕsat in data set [3] was 0.58. Moreover, the “increase in fluorescence upon binding to HaloTag” value at HaloTag protein was found to be 2.4 fold. For the same compound, in data set [4], the Kd came to 280 nM. In [4] (in vitro), the ΔF/F0 was 7.8.

For Calcium Orange [Compound 2], the ϕsat in data set [7] is recorded as 0.33. Also, in data set [8] (literature value (ref. 15)), the λem is on record as 574 nm and the λmax is listed as 549 nm. For the same compound, in data set [8] (literature value), the “excitation maxima (λex)” value is reported as 549 nm. Further, in [9], the Kd is 185 nM and the ΔF/F0 is 3.

Regarding Oregon Green BAPTA-1 [Compound 1], in data set [9], the equilibrium dissociation constant (Kd) is 170 nM and the ΔF/F0 was 14.
